Assay results published in patent publication US12648917B2 (University of Florida Research Foundation, Incorporated, priority 2017, dated 2026).
“Also recorded” adds a separate entry of the source.

Legend:
[1] = system: RAN protein translation; experiment: RAN protein levels by protein blot in HEK293T cells transfected with repeat expansion constructs; assay type: cell-based; settings: for RAN polyGP protein levels, dose dependence: HEK293T cells transiently transfected with G4C2 expansion constructs (FIG. 4)
Source text: . […] Protein blots were run on protein lysates from HEK293T cells transfected with various repeat expansion constructs shown in FIG. 1A. In FIG. 1B, the lanes labeled KMQ, show: RAN poly-Ser-Flag, RAN poly-Ala-HA, ATG initiated polyGln-Myc. In FIG. 1B, the lanes labeled KMQ has a methionine encoding ATG immediately 5′ to the CAG repeat expansion and located within the polyGln reading frame. The lanes labeled KKQ indicate the KKQ vector contains a CAG expansion without an AUG initiation codon, and indicates: RAN polySer-Flag, RAN polyAla-HA, RAN polyGln-Myc. These constructs contain epitope tags that are incorporated into the C-terminal regions of the ATG-initiated poly-Gln and non-ATG initiated RAN proteins (poly-Gln, poly-Leu-Pro-Ala-Cys and poly-Gly-Pro) which are expressed across these repeat expansions. The lane labeled CCTG expresses the following RAN proteins: RAN polyLPAC-Flag, RAN polyLPAC-HA, RAN polyLPAC-Myc. The lane labeled G4C2 is designed to detect the following RAN proteins: RAN polyGP-Flag, RAN polyGR-HA, RAN polyGA-Myc. […].
(§1) HEK293T cells were cultured in DMEM medium supplemented with 10% fetal bovine serum and incubated at 37° C. in a humid atmosphere containing 5% CO2. DNA transfections were performed using Lipofectamine 2000 Reagent (Invitrogen) according to the manufacturer's instructions.
(§2) Transfected cells in each well of a six-well tissue-culture plate were rinsed with PBS and lysed in 300 μL RIPA buffer with protease inhibitor cocktail for 45 min on ice. DNA was sheared by passage through a 21-gauge needle. The cell lysates were centrifuged at 16,000×g for 15 min at 4° C., and the supernatant was collected. The protein concentration of the cell lysate was determined using the protein assay dye reagent (Bio-Rad). Twenty micrograms of protein were separated in a 4-12% NuPAGE Bis-Tris gel (Invitrogen) and transferred to a nitrocellulose membrane (Amersham). The membrane was blocked in 5% dry milk in PBS containing 0.05% Tween-20 (PBS-T) and probed with the anti-Flag (1:2000), anti-Myc (1:1000), anti-HA (1:1000), or rabbit polyclonal antibodies (1:1000) in blocking solution. After the membrane was incubated with anti-rabbit or anti-mouse HRP-conjugated secondary antibody (Amersham), bands were visualized by the ECL plus Western Blotting Detection System (Amersham).
. Transient transfections of expansion constructs treated with or without metformin were performed. […]. […] Protein blots were run on protein lysates from HEK293T cells transfected with various repeat expansion constructs shown in FIG. 5A. In FIG. 5B, the lanes labeled KMQ, show: RAN poly-Ser-Flag, RAN poly-Ala-HA, ATG initiated polyGln-Myc. In FIG. 5B the lanes labeled KMQ has a methionine encoding ATG immediately 5′ to the CAG repeat expansion and located within the polyGln reading frame. The lanes labeled KKQ indicate the KKQ vector contains a CAG expansion without an AUG initiation codon, and indicates: RAN polySer-Flag, RAN polyAla-HA, RAN polyGln-Myc. These constructs contain epitope tags that are incorporated into the C-terminal regions of the ATG-initiated poly-Gln and non-ATG initiated RAN proteins (poly-Gln, poly-Leu-Pro-Ala-Cys and poly-Gly-Pro) which are expressed across these repeat expansions. The lane labeled CCTG expresses the following RAN proteins: RAN polyLPAC-Flag, RAN polyLPAC-HA, RAN polyLPAC-Myc. The lane labeled G4C2 is designed to detect the following RAN proteins: RAN polyGP-Flag, RAN polyGR-HA, RAN polyGA-Myc. […].

[2] = target: T1, PKR (Homo sapiens, UniProt P19525); experiment: p-PKR (T446 and T451) levels by protein blot in HEK293T cells transfected with repeat expansion constructs; assay type: cell-based; settings: for G4C2 repeat-expansion induced p-PKR (T446 and T451) levels, dose dependence: cells transfected with a G4C2 repeat expansion construct (FIG. 4)
T1 construct: endogenous in cells; host or cells: HEK293T
T1 sequence (P19525 whole entry): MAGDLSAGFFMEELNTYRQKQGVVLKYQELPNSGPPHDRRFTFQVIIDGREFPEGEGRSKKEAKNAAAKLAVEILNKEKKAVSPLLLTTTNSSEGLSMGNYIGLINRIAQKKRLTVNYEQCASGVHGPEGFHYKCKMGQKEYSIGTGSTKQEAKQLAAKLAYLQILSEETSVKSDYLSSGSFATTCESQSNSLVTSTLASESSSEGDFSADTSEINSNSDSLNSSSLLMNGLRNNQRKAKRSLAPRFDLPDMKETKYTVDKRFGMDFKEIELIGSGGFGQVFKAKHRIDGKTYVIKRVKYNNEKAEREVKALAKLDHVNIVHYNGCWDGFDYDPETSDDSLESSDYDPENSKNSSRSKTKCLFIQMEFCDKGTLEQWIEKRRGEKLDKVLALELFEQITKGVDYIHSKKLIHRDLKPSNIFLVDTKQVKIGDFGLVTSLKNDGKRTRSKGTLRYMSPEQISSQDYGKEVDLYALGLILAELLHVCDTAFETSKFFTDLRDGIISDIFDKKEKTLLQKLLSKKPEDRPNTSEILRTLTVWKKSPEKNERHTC
Description: as §1, §2
[…]. Transient transfections of expansion constructs treated with or without metformin were performed. […].

[3] = system: glycine-proline (GP) RAN protein; experiment: GP RAN protein levels in leukocyte lysates from peripheral blood of a C9ORF72 expansion-positive subject; assay type: in vivo; settings: single human subject with C9ORF72 repeat expansion, 500 or 1000 mg/day Metformin Hydrochloride Extended Release Tablets, 10 to 30 days after treatment
Source text: […]. […] […]. […] […]

[4] = system: GA aggregates; experiment: GA aggregates in retrosplenial cortex of C9-BAC mice; assay type: in vivo, mouse; settings: for reduction in the number of GA aggregates compared to C9 controls: 5 mg/ml in drinking water
Description: (§3) In Group A animals, treatment began at 2 months of age, before the onset of overt behavioral or pathological phenotypes. In Group B, smaller cohorts of animals (n=8/group) were treated beginning at 6 months, an age at which behavioral phenotypes are evident. DigiGait analyses of Group A mice at 5 months identified eight DigiGait parameters that differed between untreated C9 and NT cohorts. […]. […] […].
Cancer Prev Res (Phila) 3, 1066-1076, doi: 10.1158/1940-6207. CAPR-10-0055 (2010)). In Group A animals, three months of treatment began at 2 months of age, before the onset of overt behavioral or pathological phenotypes. In Group B, smaller cohorts of animals were treated for four months beginning at 6 months, an age at which behavioral phenotypes are evident^12.

[5] = system: C9-BAC mice; experiment: Open field analysis (center time) in C9-BAC mice; assay type: in vivo, mouse; settings: Group A metformin-treated C9 mice compared to untreated C9 mice
Description: Open field analysis. Open field analysis was performed by testing mouse behavior during a 30 min session in a completely dark open chamber (17″×17″) (Med Associates). Approximately two hours before the start of analysis, mice were placed in the testing room to allow for acclimation to the room. Mice were then placed in the center of the darkened activity-monitoring chamber. The trace path and center time was recorded and analyzed with Activity Monitor (MED associates, Inc.) software.
as §3
DigiGait analyses of Group A mice at 5 months identified eight parameters that differed between untreated C9 and NT cohorts. […]. […]. […]

[6] = system: glial fibrillary acidic protein (GFAP); experiment: IHC staining for GFAP (neuroinflammation, reactive gliosis) in C9-BAC mice; assay type: in vivo, mouse
[7] = metformin 5 mg/ml in the drinking water; previously shown, comparable to human doses of 20 mg/kg/day; cited from earlier work

Row | Structure (SMILES) | RAN polyGP protein levels, dose dependence [1] | G4C2 repeat-expansion induced p-PKR (T446 and T451) levels, dose dependence [2] | RAN protein levels of poly-Ala ([1]; HEK293T cells transfected with CAG repeat expansion constructs, treated with metformin, protein blot) | RAN protein levels of poly-LPAC (all three reading frames) ([1]; HEK293T cells transfected with CCTG repeat expansion construct, treated with metformin, protein blot) | RAN protein levels of poly-GP ([1]; HEK293T cells transfected with G4C2 (GGGGCC) repeat expansion construct, treated with metformin, protein blot) | RAN protein levels / expression ([1]; HEK293T cells transiently transfected with CAG, CCTG, CAGG and G4C2 expansion constructs (FIG. 3A)) | p-PKR (T446 and T451) levels / PKR phosphorylation ([2]; cells transfected with repeat expansion constructs, with or without metformin (FIG. 3B, FIG. 6A)) | glycine-proline (GP) RAN protein levels compared to pretreatment levels [3] | reduction in the number of GA aggregates compared to C9 controls ([4]; Group A (treated from 2 months of age, 3 months), P=0.01) [%] | reduction in the number of GA aggregates compared to C9 controls ([4]; Group B (treated from 6 months of age), P=0.047) [%] | GA aggregates compared to untreated C9 controls, in words ([4]; metformin in drinking water, Group A and Group B) | open field center time (anxiety-like behavior) [5] | GFAP staining / reactive gliosis compared to untreated C9 animals, in words ([6]; C9 metformin treated vs untreated C9 animals (Group A)) | reduction of GFAP staining compared to untreated C9 mice ([6]; Group A) [%] | reduction of GFAP staining compared to untreated C9 mice ([6]; Group B) [%] | plasma levels [7] [µM]
1 | [H]/N=C(/N)N/C(=N/[H])NCCc1ccccc1 [phenformin] | reduce GP RAN protein levels in a dose-dependent manner | reduce levels of p-PKR | – | – | – | – | – | – | – | – | – | – | – | – | – | –
2 | CCCCNC(=N)NC(=N)N [buformin] | reduce GP RAN protein levels in a dose-dependent manner | reduce levels of p-PKR | – | – | – | – | – | – | – | – | – | – | – | – | – | –
3 | CN(C)C(=N)NC(=N)N [metformin] | reduce GP RAN protein levels in a dose-dependent manner | reduce levels of p-PKR | reduced; also recorded: decreases | reduced; also recorded: decreases | reduced; also recorded: decreases | decreases RAN protein levels; also recorded: reduces RAN protein expression | decreases PKR phosphorylation; also recorded: reduces levels of p-PKR | Dose dependent reduction; also recorded: Dose-dependent reduction | 38 | 37 | decreased numbers of GA aggregates; also recorded: reduction in GA aggregates | increased center time; also recorded: normalization or increased center time; also recorded: normalized | significantly reduced; also recorded: decreased levels of reactive gliosis | 79 | 74 | ~10
